Molecules are shown by their SMILES.

Data on 34 compounds can be found in patent US6855710B2, “Substituted indolines with an inhibitory effect on various kinases and complexes of CDKs” (Boehringer Ingelheim Pharma KG, priority 1998, dated 2005).

Consider `CCS(=O)(=O)N(CC(N)=O)c1ccc(N/C(=C2\C(=O)Nc3ccccc32)c2ccccc2)cc1` [Example 299, (Z)-3-{1-[4-(N-aminocarbonylmethyl-N-ethylsulphonyl-amino)-phenylamino]-1-phenyl-methylidene}-2-indolinone], for which the melting point (usually the temperature, or range, at which the solid turns liquid) was determined as 259 °C. As for `COC(=O)C(N)Cc1ccc(N/C(=C2\C(=O)Nc3ccc([N+](=O)[O-])cc32)c2ccccc2)cc1.Cl` (stereo not shown), the figure is 215 °C (dec.); as for `CC(=O)Nc1cccc(N/C(=C2\C(=O)Nc3ccc([N+](=O)[O-])cc32)c2ccccc2)c1` [Example 89, (Z)-3-[1-(3-acetylamino-phenylamino)-1-phenyl-methylidene]-5-nitro-2-indolinone], 318 to 320 °C (dec.). As for `CN(C)CCN(c1ccc(N/C(=C2\C(=O)Nc3ccccc32)c2ccccc2)cc1)S(=O)(=O)Cc1ccccc1` [Example 314, (Z)-3-{1-[4-(N-(2-dimethylaminoethyl)-N-benzylsulphonyl-amino)-phenylamino]-1-phenyl-methylidene}-2-indolinone], the figure is 244 °C; as for `CCOC(=O)c1ccc(N/C(=C2\C(=O)Nc3ccccc32)c2ccccc2)cc1` [Example 13, (Z)-3-[1-(4-ethoxycarbonyl-phenylamino)-1-phenyl-methylidene]-2-indolinone], 227 to 228 °C. For `CN(c1ccc(N/C(=C2\C(=O)Nc3ccccc32)c2ccccc2)cc1)S(C)(=O)=O` [Example 186, (Z)-3-{1-[4-(N-methyl-N-methylsulphonyl-amino)-phenylamino]-1-phenyl-methylidene}-2-indolinone], the melting point was 269 °C.

For `CC(C)(C)OC(=O)NCC(=O)Nc1ccc(N/C(=C2\C(=O)Nc3ccccc32)c2ccccc2)cc1` [Example 34, (Z)-3-[1-(4-tert.butoxycarbonylaminomethylcarbonylamino-phenylamino)-1-phenyl-methylidene]-2-indolinone], the melting point was 243 to 244 °C (dec.). As for `O=C(O)COc1ccc(N/C(=C2\C(=O)Nc3ccccc32)c2ccccc2)cc1` [Example 290, (Z)-3-{1-[4-(carboxymethyloxy)-phenylamino]-1-phenyl-methylidene}-2-indolinone], the figure is 238 to 240 °C.

Regarding `CN(C(=O)C(F)(F)F)c1cccc(N/C(=C2\C(=O)Nc3ccccc32)c2ccccc2)c1` [Example 36, (Z)-3-{1-[3-(N-trifluoroacetyl-N-methyl-amino)-phenylamino]-1-phenyl-methylidene}-2-indolinone], the melting point lay in the range of 224 to 227 °C. As for `O=C1Nc2ccccc2/C1=C(/Nc1ccc(OCCN2CCCCC2)cc1)c1ccccc1` [Example 285, (Z)-3-{1-[4-(2-piperidinoethyloxy)-phenylamino]-1-phenyl-methylidene}-2-indolinone], the figure is 198 to 200 °C; as for `CN(C)CCCN(c1cccc(N/C(=C2\C(=O)Nc3ccccc32)c2ccc(CN)cc2)c1)S(C)(=O)=O` [Example 424, (Z)-3-{1-[3-(N-(3-dimethylaminopropyl)-N-methylsulphonyl-amino)-phenylamino]-1-(4-aminomethyl-phenyl)-methylidene}-2-indolinone], 197 °C. `CS(=O)(=O)Nc1ccc(N/C(=C2\C(=O)Nc3ccc([N+](=O)[O-])cc32)c2ccccc2)cc1` [Example 196, (Z)-3-[(4-methylsulphonylamino-phenylamino)-1-phenyl-methylidene]-5-nitro-2-indolinone] returned a melting point of 344 to 346 °C.

For `NC(CCO)(CCO)c1ccc(N/C(=C2\C(=O)Nc3ccc([N+](=O)[O-])cc32)c2ccccc2)cc1` [Example 240, (Z)-3-{1-[4-(Bis-(2-hydroxyethyl)-aminomethyl)-phenylamino]-1-phenyl-methylidene}-5-nitro-2-indolinone], the melting point lay within 196 to 198 °C.

The compound `CC(=O)NCCc1ccc(N/C(=C2\C(=O)Nc3ccc([N+](=O)[O-])cc32)c2ccccc2)cc1` [Example 129, (Z)-3-{1-[4-(2-acetylamino-ethyl)-phenylamino]-1-phenyl-methylidene}-5-nitro-2-indolinone] yielded a melting point of 306 to 307 °C. As for `O=C1Nc2ccc([N+](=O)[O-])cc2/C1=C(/Nc1ccc(CN2CCCCC2)cc1)c1ccc(Cl)cc1` [Example 443, (Z)-3-[1-(4-piperidinomethyl-phenylamino)-1-(4-chlorophenyl)-methylidene]-5-nitro-2-indolinone], the figure is 309 to 311 °C. Compound `O=C1Nc2ccc([N+](=O)[O-])cc2/C1=C(/Nc1ccc(CN2CCC2)cc1)c1ccccc1` [Example 273, (Z)-3-{1-[4-(Azetidin-1-yl-methyl)-phenylamino]-1-phenyl-methylidene}-5-nitro-2-indolinone] gave a melting point of 228 to 229 °C. As for `CC(=O)NCC(=O)Nc1ccc(N/C(=C2\C(=O)Nc3ccccc32)c2ccccc2)cc1` [Example 368, (Z)-3-{1-[4-(acetylaminomethylcarbonylamino)-phenylamino]-1-phenyl-methylidene}-2-indolinone], the figure is 245 to 247 °C. As for `CN(C(=C1C(=O)Nc2ccccc21)c1ccccc1)c1ccc(C#N)cc1` [Example 61, 3-{1-[N-(4-cyanophenyl)-N-methyl-amino]-1-phenyl-methylidene}-2-indolinone], the figure is 239 °C. As for `CCOC(=O)CN(C(=O)c1ccccc1)c1ccc(N/C(=C2\C(=O)Nc3ccccc32)c2ccccc2)cc1` [Example 360, (Z)-3-{1-[4-(N-ethoxycarbonylmethyl-N-benzoyl-amino)-phenylamino]-1-phenyl-methylidene}-2-indolinone], the figure is 209 to 211 °C.

In the case of `CN(C(=O)CN1CCNCC1)c1ccc(N/C(=C2\C(=O)Nc3ccccc32)c2ccccc2)cc1.Cl.Cl`, the melting point was 255 to 258 °C (dec.). As for `CC(C)(C)OC(=O)NCCc1ccc(N/C(=C2\C(=O)Nc3ccc([N+](=O)[O-])cc32)c2ccc(CN)cc2)cc1` [Example 155, (Z)-3-{1-[4-(2-tert.butoxycarbonylamino-ethyl)-phenylamino]-1-(4-aminomethyl-phenyl)-methylidene}-5-nitro-2-indolinone], the figure is 215 to 217 °C (dec.); as for `O=CNc1ccc(N/C(=C2\C(=O)Nc3ccc([N+](=O)[O-])cc32)c2ccccc2)cc1` [Example 92, (Z)-3-[1-(4-formylamino-phenylamino)-1-phenyl-methylidene]-5-nitro-2-indolinone], 355 to 356 °C (dec.); as for `O=C1Nc2ccc([N+](=O)[O-])cc2/C1=C(/Nc1ccc(CCNCCO)cc1)c1ccccc1` [Example 256, (Z)-3-{1-[4-(2-(2-hydroxyethylamino)-ethyl)-phenylamino]-1-phenyl-methylidene}-5-nitro-2-indolinone], 236 to 238 °C. As for `CCOC(=O)CN(c1ccc(N/C(=C2\C(=O)Nc3ccc([N+](=O)[O-])cc32)c2ccccc2)cc1)S(C)(=O)=O` [Example 198, (Z)-3-{-[4-(N-ethoxycarbonylmethyl-N-methylsulphonyl-amino)-phenylamino]-1-phenyl-methylidene}-5-nitro-2-indolinone], the figure is 236 to 238 °C; as for `O=C1Nc2ccccc2/C1=C(/Nc1ccccc1)c1ccccc1` [Example 1, (Z)-3-(1-Anilino-1-phenyl-methylidene)-2-indolinone], 325 °C. As for `O=C1Nc2ccc([N+](=O)[O-])cc2/C1=C(/Nc1ccc(CN2CCCCC2)cc1)c1ccc(C(=O)O)cc1` [Example 445, (Z)-3-[1-(4-piperidinomethyl-phenylamino)-1-(4-carboxyphenyl)-methylidene]-5-nitro-2-indolinone], the figure is 230 °C. `CN(C)CCNC(=O)CN(c1cccc(N/C(=C2\C(=O)Nc3ccccc32)c2ccccc2)c1)S(C)(=O)=O` [Example 322, (Z)-3-{1-[3-(N-(2-dimethylamino-ethylaminocarbonylmethyl)-N-methylsulphonyl-amino)-phenylamino]-1-phenyl-methylidene}-2-indolinone] gave a melting point of 179 to 181 °C. As for `O=C1Nc2ccc([N+](=O)[O-])cc2/C1=C(/Nc1ccc(CN2CCOCC2)cc1)c1ccccc1` [Example 118, (Z)-3-[1-(4-morpholinomethyl-phenylamino)-1-phenyl-methylidene]-5-nitro-2-indolinone], the figure is 273 °C; as for `O=C(CN1CCOCC1)Nc1ccc(N/C(=C2\C(=O)Nc3ccc([N+](=O)[O-])cc32)c2ccccc2)cc1` [Example 96, (Z)-3-[1-(4-morpholinomethylcarbonylamino-phenylamino)-1-phenyl-methylidene]-5-nitro-2-indolinone], 265 to 267 °C; as for `CCOC(=O)CNCCc1ccc(N/C(=C2\C(=O)Nc3ccc([N+](=O)[O-])cc32)c2ccccc2)cc1` [Example 178, (Z)-3-{1-[4-(2-ethoxycarbonylmethylamino-ethyl)-phenylamino]-1-phenyl-methylidene}-5-nitro-2-indolinone], 139 to 140 °C.

For the compound `O=C1Nc2ccc([N+](=O)[O-])cc2/C1=C(/Nc1ccc(CN2CCC(CO)CC2)cc1)c1ccccc1` [Example 250, (Z)-3-{1-[4-(4-hydroxymethyl-piperidinomethyl)-phenylamino]-1-phenyl-methylidene}-5-nitro-2-indolinone], the melting point was in the range of 227 to 228 °C.

`CN(C)Cc1ccc(N/C(=C2\C(=O)Nc3ccccc32)c2ccccc2)cc1` [Example 266, (Z)-3-{1-[4-(dimethylaminomethyl)-phenylamino]-1-phenyl-methylidene}-2-indolinone] displayed a melting point of 237 to 240 °C. As for `CCCCNCc1ccc(N/C(=C2\C(=O)Nc3ccc([N+](=O)[O-])cc32)c2ccccc2)cc1` [Example 166, (Z)-3-[1-(4-butylaminomethyl-phenylamino)-1-phenyl-methylidene]-5-nitro-2-indolinone], the figure is 183 °C. As for `O=C(O)CNS(=O)(=O)c1ccc(N/C(=C2\C(=O)Nc3ccc([N+](=O)[O-])cc32)c2ccccc2)cc1` [Example 411, (Z)-3-{1-[4-(carboxymethylaminosulphonyl)-phenylamino]-1-phenyl-methylidene}-5-nitro-2-indolinone], the figure is 177 to 180 °C (dec.).
